Entries after “also recorded” stand apart in the source; their conditions may differ. Where two headings read alike, the source gives them in different places.
What was measured:
human TLR-8 [1] = biological target: T1, human TLR-8 (Homo sapiens, UniProt Q9NR97); experiment: TLR-8 HEK-SEAP reporter competition (antagonist) assay against agonist compound 5; conditions: agonist compound 5 at different concentrations, FIGS. 1A-D
T1 sequence (Q9NR97 27-1041): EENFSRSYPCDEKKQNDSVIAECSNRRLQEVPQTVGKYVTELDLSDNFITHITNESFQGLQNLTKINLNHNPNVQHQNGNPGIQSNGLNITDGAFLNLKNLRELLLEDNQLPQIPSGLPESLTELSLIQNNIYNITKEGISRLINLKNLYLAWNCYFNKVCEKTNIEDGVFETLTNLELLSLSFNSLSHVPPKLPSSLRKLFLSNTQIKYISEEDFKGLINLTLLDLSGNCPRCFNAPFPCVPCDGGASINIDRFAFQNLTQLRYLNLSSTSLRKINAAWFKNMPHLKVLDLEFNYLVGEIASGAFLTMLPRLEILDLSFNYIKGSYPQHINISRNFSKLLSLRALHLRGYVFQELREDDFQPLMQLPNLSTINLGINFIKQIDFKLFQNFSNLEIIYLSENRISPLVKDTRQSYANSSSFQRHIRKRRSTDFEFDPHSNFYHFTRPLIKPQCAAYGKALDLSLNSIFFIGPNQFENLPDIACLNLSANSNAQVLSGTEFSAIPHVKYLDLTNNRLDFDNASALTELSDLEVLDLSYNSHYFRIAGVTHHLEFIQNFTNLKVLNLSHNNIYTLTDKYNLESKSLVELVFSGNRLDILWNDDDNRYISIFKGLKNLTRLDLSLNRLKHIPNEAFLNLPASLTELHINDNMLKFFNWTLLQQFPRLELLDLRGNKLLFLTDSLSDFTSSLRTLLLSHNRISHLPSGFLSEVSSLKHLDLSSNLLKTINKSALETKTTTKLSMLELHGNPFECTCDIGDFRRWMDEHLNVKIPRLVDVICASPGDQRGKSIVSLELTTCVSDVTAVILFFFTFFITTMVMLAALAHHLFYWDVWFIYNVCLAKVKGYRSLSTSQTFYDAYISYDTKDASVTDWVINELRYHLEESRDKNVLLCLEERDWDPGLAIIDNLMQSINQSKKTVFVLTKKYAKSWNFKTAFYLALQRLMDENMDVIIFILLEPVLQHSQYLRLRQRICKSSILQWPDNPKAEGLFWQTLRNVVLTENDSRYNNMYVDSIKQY

human TLR-7 [2] = biological target: T2, human TLR-7 (Homo sapiens, UniProt Q9NYK1); experiment: TLR-7/NF-κB/SEAP reporter assay in HEK293 cells, agonist mode
T2 sequence (Q9NYK1 27-1049): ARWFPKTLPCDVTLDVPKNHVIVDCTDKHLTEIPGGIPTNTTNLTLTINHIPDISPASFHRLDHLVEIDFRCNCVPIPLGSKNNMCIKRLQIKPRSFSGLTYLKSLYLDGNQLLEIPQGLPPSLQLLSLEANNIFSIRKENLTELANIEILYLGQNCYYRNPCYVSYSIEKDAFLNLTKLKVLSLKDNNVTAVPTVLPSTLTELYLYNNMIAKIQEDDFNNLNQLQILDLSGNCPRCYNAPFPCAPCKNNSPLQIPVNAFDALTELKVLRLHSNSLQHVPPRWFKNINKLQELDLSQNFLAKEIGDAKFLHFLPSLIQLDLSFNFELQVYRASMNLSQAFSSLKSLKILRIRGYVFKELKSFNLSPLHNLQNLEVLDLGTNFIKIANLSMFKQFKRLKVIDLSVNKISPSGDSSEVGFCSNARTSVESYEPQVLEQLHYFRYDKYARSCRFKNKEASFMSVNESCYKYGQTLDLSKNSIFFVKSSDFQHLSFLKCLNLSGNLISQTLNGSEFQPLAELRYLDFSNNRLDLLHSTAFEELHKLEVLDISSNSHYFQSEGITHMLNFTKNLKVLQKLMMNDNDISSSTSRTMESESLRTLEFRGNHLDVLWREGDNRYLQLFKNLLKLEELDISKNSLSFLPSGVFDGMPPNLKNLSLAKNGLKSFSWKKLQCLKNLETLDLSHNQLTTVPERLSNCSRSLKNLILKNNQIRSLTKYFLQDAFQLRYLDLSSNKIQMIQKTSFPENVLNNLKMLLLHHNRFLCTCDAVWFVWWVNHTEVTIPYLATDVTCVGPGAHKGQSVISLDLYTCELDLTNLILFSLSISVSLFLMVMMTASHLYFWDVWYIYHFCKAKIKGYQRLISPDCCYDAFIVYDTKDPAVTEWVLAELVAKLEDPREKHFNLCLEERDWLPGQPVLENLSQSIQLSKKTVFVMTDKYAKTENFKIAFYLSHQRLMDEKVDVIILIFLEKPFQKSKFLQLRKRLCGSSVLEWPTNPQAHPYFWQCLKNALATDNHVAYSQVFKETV

human TLR-8 [3] = biological target: T1, human TLR-8; experiment: TLR-8/NF-κB/SEAP reporter assay in HEK293 cells, agonist mode; conditions: HEK-SEAP reporter cells
human TLR-7 [4] = biological target: T2, human TLR-7; experiment: TLR-7 HEK-SEAP reporter competition (antagonist) assay against agonist compound 5; conditions: for TLR-7 antagonist activity against compound 5 (in words): agonist compound 5 at different concentrations, FIGS. 1A-D; for IC50: read-out: TLR-7 reporter cell activity, IC50 of antagonists, relative IC50 at fixed concentration of compound 5, 3 μM
[5] = system: TNFα, IFNγ and IL-1β production in hPBMCs; experiment: Competition assay of agonist-induced cytokine induction in hPBMCs (ELISA); format: cell-based, human
Procedure: Preparation and stimulation of PBMC. Human PBMC can be isolated from heparinized blood by standard density-gradient centrifugation over Ficoll-Paque Plus (Pharmacia, Uppsala, Sweden). Briefly, peripheral blood can be drawn by venipuncture into green top heparin tubes. The blood can be diluted 1:1 with PBS, and then layered upon Ficoll-Paque Plus in 50 ml centrifuge tubes. The tubes can be spun at 2000 rpm for 20 min, after which the buffy coats can be collected and washed twice in PBS. The isolated PBMC can be counted and added to the wells of a 24-well plate (5×10^5 cells/1 ml/well) in RPMI 1640 supplemented with 10% FBS, penicillin, streptomycin, sodium pyruvate, nonessential amino acids, and HEPES. TLR agonist 5 and TLR antagonist 3 can be prepared in DMSO and added to the wells (in triplicate) to reach the desired final concentrations. Some wells may only contain DMSO. After 24 h, culture supernatants can be collected, aliquoted, and frozen at −80° C. until analysis.
Quantitation of IL-1p, IFNγ, and TNFα. The amount of cytokines present in the supernatants after stimulation can be determined via Enzyme-Linked Immunosorbent Assay (ELISA) using a BioLegend ELISA MAX Deluxe Set for each cytokine tested. The assays can be conducted following the protocols provided by the assay set. Cell culture supernatants from hPBMCs can be used directly without dilution for the determination of IFNγ and TNFα but can be diluted accordingly for the IL-1β so the observed cytokine level could fall into the linear range of the assay.
These cytokines can be of particular interest due to the role they play in the driving Th1 differentiation of immune cells and development of cellular immunity.

Structure (SMILES): COC(=O)c1ccc2c(c1)nc(N)c1nc(CC(C)C)n(CC(C)O)c12 (stereo not drawn) [Compound 1, methyl 4-amino-1-(2-hydroxypropyl)-2-isobutyl-1H-imidazo[4,5-c]quinoline-7-carboxylate]
- TLR-8 antagonist activity against compound 5 (in words) (human TLR-8 [1]): reduction of TLR-8 activity
- TLR-7 agonist activity (in words) (human TLR-7 [2]; HEK-SEAP reporter cells): showed agonist activity
- EC50 (human TLR-7 [2]; read-out: TLR-7 reporter cell activity, EC50, HEK-SEAP reporter cells, agonist): 29.4 ± 2.2 µM

Structure (SMILES): COC(=O)c1ccc2c(c1)nc(N)c1nc(CC3CC3)n(CC(C)O)c12 (stereo not drawn) [Compound 2, methyl 4-amino-2-(cyclopropylmethyl)-1-(2-hydroxypropyl)-1H-imidazo[4,5-c]quinoline-7-carboxylate]
- TLR-8 agonist activity (in words) (human TLR-8 [3]): showed agonist activity
- EC50 (human TLR-8 [3]; read-out: TLR-8 reporter cell activity, EC50, agonist): 18.8 ± 3.4 µM
- EC50 (human TLR-7 [2]): 13.4 ± 1.5 µM
- TLR-7 agonist activity (in words) (human TLR-7 [2]; HEK-SEAP reporter cells): showed agonist activity

Structure (SMILES): COC(=O)c1ccc2c(c1)nc(N)c1nc(CC(C)C)n(Cc3ccc(CN)cc3)c12 [Compound 3, methyl 4-amino-1-(4-(aminomethyl)benzyl)-2-isobutyl-1H-imidazo[4,5-c]quinoline-7-carboxylate]
- TLR-7 antagonist activity against compound 5 (in words) (human TLR-7 [4]): concentration-dependent shifts; also recorded: low μM antagonists
- IC50 (human TLR-7 [4]): 3.91 ± 0.15 µM
- inhibition of TNFα production ([5]; agonist 5 induced, FIG. 4A): concentration-dependent reduction; also recorded: potent inhibitor
- inhibition of IFNγ production ([5]; agonist 5 induced, FIG. 4B): concentration-dependent reduction; also recorded: potent inhibitor
- inhibition of IL-1β production ([5]; agonist 5 induced, FIG. 4C): concentration-dependent reduction; also recorded: potent inhibitor
- stimulatory activity in hPBMCs ([5]; compound itself): devoid of stimulatory activity

Structure (SMILES): COC(=O)c1ccc2c(c1)nc(N)c1nc(CC3CC3)n(Cc3ccc(CN)cc3)c12 [Compound 4, methyl 4-amino-1-(4-(aminomethyl)benzyl)-2-(cyclopropylmethyl)-1H-imidazo[4,5-c]quinoline-7-carboxylate]
- TLR-7 antagonist activity against compound 5 (in words) (human TLR-7 [4]): concentration-dependent shifts; also recorded: low μM antagonists
- IC50 (human TLR-7 [4]): 4.1 ± 0.2 µM

From patent US20250025447A1, “TOLL-LIKE RECEPTOR AGONISTS AND ANTAGONISTS AND USES THEREOF” (Regents of the University of Minnesota, priority 2021, published 2025)
